Measured values from patent US5244883A, “Nonapeptide bombesin antagonists” (The Administrators of the Tulane Educational Fund, priority 1990, dated 1993).
Where a SMILES comes first, the peptide text is derived from it. [ ]: non-standard residue; d: D form. The star is where a group is joined. His(τ-Bzl) = N[C@@H](Cc1cn(Cc2ccccc2)cn1)C(=O)O; X2 = CC(C)C[C@@H](CN[C@@H](CC(C)C)C(N)=O)N*; dTpi = O=C(O)[C@H]1Cc2c([nH]c3ccccc23)CN1

Target: T1, GRP receptors on Swiss 3T3 cells (Mus musculus, UniProt P21729)
T1 construct: conducted in 24-well tissue culture plates (GIBCO) using Swiss 3T3 cells; endogenous in cells; host or cells: Murine Swiss 3T3 fibroblasts (intact confluent, quiescent cells)
T1 sequence (P21729 whole entry): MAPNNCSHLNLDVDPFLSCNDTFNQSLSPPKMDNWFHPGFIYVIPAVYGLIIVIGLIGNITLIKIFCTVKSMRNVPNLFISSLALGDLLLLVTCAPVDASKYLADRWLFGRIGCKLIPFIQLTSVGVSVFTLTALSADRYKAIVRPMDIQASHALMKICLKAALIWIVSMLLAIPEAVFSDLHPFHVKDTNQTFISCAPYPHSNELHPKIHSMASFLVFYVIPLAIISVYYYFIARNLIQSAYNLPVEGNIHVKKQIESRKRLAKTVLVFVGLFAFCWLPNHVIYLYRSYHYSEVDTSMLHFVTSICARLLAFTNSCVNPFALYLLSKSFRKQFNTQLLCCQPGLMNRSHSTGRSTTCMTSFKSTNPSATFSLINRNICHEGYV
Test: Receptor binding assay: displacement of 125I-GRP(14-27) on Swiss 3T3 cells
Design: species or system Murine
Settings: for Ka: association constant, N.D.=NO DISPLACEMENT; for Ka / Kd: 0.2 nM 125I-GRP(14-27), Swiss 3T3 cells, 37° C. 30 min; for IC50: calculated by Cheng and Prussoff equation IC50=Kc(1+L/Kh), 0.2 nM radioligand
Method: (A) Receptor Binding Assay
Binding of ^125 I-GRP(14-27) and displacement by bombesin antagonists were conducted in 24-well tissue culture plates (GIBCO) using Swiss 3T3 cells. Murine Swiss 3T3 fibroblasts were maintained by weekly passage in DMEM containing 10% FCBS and antimycotics. Cultures were incubated in 5% CO2 in air at 37° C. The wells were seeded with 10^5 cells/well (viability >95%), grown to confluence and quiescency. The binding procedure was conducted 7 days after seeding. The cells were washed 2 times with 0.5 ml of binding buffer (Dulbecco's modified Eagle's medium containing […] (pH 7.4), 0.2% BSA and 100 mcg/ml bacitracin). The cells were then incubated with 0.2 nM ^125 I-GRP (14-27) in the presence or absence of different concentrations of antagonists (6×10^-11 -6×10^-6 M, total volume 0.4 ml).
According to Zachary and Rozengurt (1985) and Layton et al., (1988), binding of ^125 I-GRP at 37° C. reached a maximum value at 30 min and decreased afterwards; so, the cells were incubated at 37° C. for 30 min. After that, the cells were washed 2 times with ice-cold (4° C.) binding buffer and 2 times with the ice-cold phosphate-buffered saline (PBS,mM): NaCl 138, KCl 2.8, Na2 HPO4 8, KH2 PO4 1.45, CaCl2 0.91, MgCl2 0.49. Washed cultures were extracted in 0.5 ml of 0.5M NaOH and transferred to tubes for counting. The wells were washed once with 0.5 ml distilled water (sterile), and the washing were added to the appropriate tubes. Then the radio-activity of the samples was counted in an automatic gamma counter (Micromedic System, Inc., Huntsville, Ala.).
The Ligand - PC computerized curve fitting program of Munson and Rodbard was used to determine the types of receptor binding, dissociation constant (Kd), association constant (Ka), the maximal binding capacity of receptors (Bmax) and half-maximal inhibition (IC50).
IC50 values represent concentrations of antagonists causing half-maximal inhibition of 0.2 nM GRP(14-27) stimulated growth. Dissociation constant and maximal binding capacity of ^125 I-GRP (14-27) in our experiments were 1.32 nm and 0.769 pm/mg protein, respectively, which were similar to those reported for ^125 I-GRP and ^125 I-Tyr^4 -bombesin. Binding characteristics of GRP receptors on 3T3 cells in these experiments agree well with values obtained for bombesin binding to pancreatic acinar (Jensen et al., 1978) and pituitary cells (Westendorf and Schonbrunn, 1983).
IC50 is the concentration of unlabelled ligand that displaced half the specific radioligand binding. It is calculated according to the equation of Cheng and Prussoff (1973): IC50 =Kc (1+L/Kh), where Kc and Kh are the dissociation constants of unlabelled (cold) and labelled (hot) ligand respectively, and L is the concentration of radioligand used.

Row | Compound | maximal binding capacity of 125I-GRP(14-27) (radioligand on Swiss 3T3 cells) [pm/mg protein] | Ka [nM⁻¹] | Kd [nM] | IC50 [nM]
1 | CSCC[C@H](NC(=O)[C@H](CC(C)C)NC(=O)[C@H](Cc1c[nH]cn1)NC(=O)CNC(=O)[C@@H](NC(=O)[C@H](C)NC(=O)[C@H](Cc1c[nH]c2ccccc12)NC(=O)[C@H](Cc1c[nH]cn1)NC(=O)[C@H](CC(N)=O)NC(=O)CNC(=O)[C@H](CCCNC(=N)N)NC(=O)[C@@H]1CCCN1C(=O)[C@H](Cc1ccc(O)cc1)NC(=O)[C@@H](N)CCSC)C(C)C)C(N)=O [125I-GRP (14-27), reference compound] | 0.769 |  |  | 
2 | CSCC[C@H](NC(=O)[C@H](CC(C)C)NC(=O)[C@H](Cc1c[nH]cn1)NC(=O)CNC(=O)[C@@H](NC(=O)[C@H](C)NC(=O)[C@H](Cc1c[nH]c2ccccc12)NC(=O)[C@H](Cc1c[nH]cn1)NC(=O)[C@H](CC(N)=O)NC(=O)CNC(=O)[C@H](CCCNC(=N)N)NC(=O)[C@@H]1CCCN1C(=O)[C@H](Cc1ccc(O)cc1)NC(=O)[C@@H](N)CCSC)C(C)C)C(N)=O [GRP(14-27), reference compound] |  | 0.758 ± 0.23 |  | 
3 | CC(C)C[C@@H](CN[C@@H](CC(C)C)C(N)=O)NC(=O)[C@H](Cc1c[nH]cn1)NC(=O)CNC(=O)[C@@H](NC(=O)[C@H](C)NC(=O)[C@H](Cc1c[nH]c2ccccc12)NC(=O)[C@H](CCC(N)=O)NC(=O)[C@H](N)Cc1c[nH]c2ccccc12)C(C)C [Peptide 2, D--Trp--Gln--Trp--Ala--Val--Gly--His--Leu-psi-Leu--NH2] |  |  | 10.6 | 12.2
4 | CC(C)C[C@@H](CN[C@@H](CC(C)C)C(N)=O)NC(=O)[C@H](Cc1c[nH]cn1)NC(=O)CNC(=O)[C@@H](NC(=O)[C@H](C)NC(=O)[C@H](Cc1c[nH]c2ccccc12)NC(=O)[C@H](CCC(N)=O)NC(=O)[C@H]1Cc2c([nH]c3ccccc23)CN1)C(C)C [Peptide 5, D--Tpi--Gln--Trp--Ala--Val--Gly--His--Leu-psi-Leu--NH2] |  |  | 8 | 9.2
5 | CC(C)C[C@@H](CN[C@@H](CC(C)C)C(N)=O)NC(=O)[C@H](Cc1c[nH]cn1)NC(=O)CNC(=O)[C@@H](NC(=O)[C@H](C)NC(=O)[C@H](Cc1c[nH]c2ccccc12)NC(=O)[C@H](Cc1cn(Cc2ccccc2)cn1)NC(=O)[C@H]1Cc2c([nH]c3ccccc23)CN1)C(C)C [Peptide 8, D--Tpi--His(Bz)--Trp--Ala--Val--Gly--His--Leu-psi-Leu--NH2] (H-[dTpi][His(τ-Bzl)]WAVGH-X2) |  | 0.014 |  | 
6 | CC(C)C[C@@H](CN[C@@H](Cc1ccccc1)C(N)=O)NC(=O)[C@H](Cc1c[nH]cn1)NC(=O)CNC(=O)[C@@H](NC(=O)[C@H](C)NC(=O)[C@H](Cc1c[nH]c2ccccc12)NC(=O)[C@H](CCC(N)=O)NC(=O)[C@H](N)Cc1c[nH]c2ccccc12)C(C)C [Peptide 10, D--Trp--Gln--Trp--Ala--Val--Gly--His--Leu-psi-Phe--NH2] |  |  | 1 | 1.15
7 | CNC(=O)CC[C@H](NC(=O)[C@H](N)Cc1c[nH]c2ccccc12)C(=O)N[C@@H](Cc1c[nH]c2ccccc12)C(=O)N[C@@H](C)C(=O)N[C@H](C(=O)NCC(=O)N[C@@H](Cc1c[nH]cn1)C(=O)N[C@H](CN[C@@H](Cc1ccccc1)C(N)=O)CC(C)C)C(C)C [Peptide 11, D--Trp--Glu(MeNH)--Trp--Ala--Val--Gly--His--Leu-psi-Phe--NH2] |  |  | 5 | 5.75
8 | CC(C)C[C@@H](CN[C@@H](Cc1ccccc1)C(N)=O)NC(=O)[C@H](Cc1c[nH]cn1)NC(=O)CNC(=O)[C@@H](NC(=O)[C@H](C)NC(=O)[C@H](Cc1c[nH]c2ccccc12)NC(=O)[C@H](CCC(N)=O)NC(=O)[C@H]1Cc2c([nH]c3ccccc23)CN1)C(C)C [Peptide 12, D--Tpi--Gln--Trp--Ala--Val--Gly--His--Leu-psi-Phe--NH2] (HELM PEPTIDE1{[O=C([C@H]1Cc2c([nH]c3ccccc23)CN1)[*:2]].Q.W.A.V.G.H.[CC(C)C[C@@H](CN[C@@H](Cc1ccccc1)C(N)=O)N[*:1]]}$$$$V2.0) |  | 0.014 |  | 
9 | CC(C)C[C@@H](CN1Cc2[nH]c3ccccc3c2C[C@H]1C(N)=O)NC(=O)[C@H](Cc1c[nH]cn1)NC(=O)CNC(=O)[C@@H](NC(=O)[C@H](C)NC(=O)[C@H](Cc1c[nH]c2ccccc12)NC(=O)[C@H](CCC(N)=O)NC(=O)[C@H](N)Cc1ccccc1)C(C)C [Peptide 17, D--Phe--Gln--Trp--Ala--Val--Gly--His--Leu-psi-Tpi--NH2] |  |  | 1 | 1.2
10 | CC(C)C[C@@H](CN1Cc2[nH]c3ccccc3c2C[C@H]1C(N)=O)NC(=O)[C@H](Cc1c[nH]cn1)NC(=O)CNC(=O)[C@@H](NC(=O)[C@H](C)NC(=O)[C@H](Cc1c[nH]c2ccccc12)NC(=O)[C@H](CCC(N)=O)NC(=O)[C@H](N)Cc1c[nH]c2ccccc12)C(C)C [Peptide 18, D--Trp--Gln--Trp--Ala--Val--Gly--His--Leu-psi-Tpi--NH2] |  |  | 4 | 4.6
11 | CC(C)C[C@@H](CN1Cc2[nH]c3ccccc3c2C[C@H]1C(N)=O)NC(=O)[C@H](Cc1c[nH]cn1)NC(=O)CNC(=O)[C@@H](NC(=O)[C@H](C)NC(=O)[C@H](Cc1c[nH]c2ccccc12)NC(=O)[C@H](CCC(N)=O)NC(=O)[C@@H]1Cc2c([nH]c3ccccc23)CN1)C(C)C [Peptide 22, Tpi--Gln--Trp--Ala--Val--Gly--His--Leu-psi-Tpi--NH2] |  |  | 0.9 | 1.14
12 | CC(C)C[C@@H](CN1Cc2[nH]c3ccccc3c2C[C@H]1C(N)=O)NC(=O)[C@H](Cc1c[nH]cn1)NC(=O)CNC(=O)[C@@H](NC(=O)[C@H](C)NC(=O)[C@H](Cc1c[nH]c2ccccc12)NC(=O)[C@H](CCC(N)=O)NC(=O)[C@H]1Cc2c([nH]c3ccccc23)CN1)C(C)C [Peptide 26, D--Tpi--Gln--Trp--Ala--Val--Gly--His--Leu-psi-Tpi--NH2] |  |  | 22 | 25.3
13 | COc1ccc(CCC(=O)N[C@@H](CCC(N)=O)C(=O)N[C@@H](Cc2c[nH]c3ccccc23)C(=O)N[C@@H](C)C(=O)N[C@H](C(=O)NCC(=O)N[C@@H](Cc2c[nH]cn2)C(=O)N[C@H](CN[C@@H](Cc2c[nH]c3ccccc23)C(N)=O)CC(C)C)C(C)C)cc1 [Peptide 27, Mpp--Gln--Trp--Ala--Val--Gly--His--Leu-psi-Trp--NH2] (HELM PEPTIDE1{[COc1ccc(CCC(=O)[*:2])cc1].Q.W.A.V.G.H.[CC(C)C[C@@H](CN[C@@H](Cc1c[nH]c2ccccc12)C(N)=O)N[*:1]]}$$$$V2.0) |  | 0.013 |  | 
14 | CC(C)C[C@@H](CN[C@@H](Cc1c[nH]c2ccccc12)C(N)=O)NC(=O)[C@H](Cc1c[nH]cn1)NC(=O)CNC(=O)[C@@H](NC(=O)[C@H](C)NC(=O)[C@H](Cc1c[nH]c2ccccc12)NC(=O)[C@H](CCC(N)=O)NC(=O)[C@H](N)Cc1ccccc1)C(C)C [Peptide 28, D--Phe--Gln--Trp--Ala--Val--Gly--His--Leu-psi-Trp--NH2] |  |  | 8 | 9.16
15 | CC(C)C[C@@H](CN[C@@H](Cc1c[nH]c2ccccc12)C(N)=O)NC(=O)[C@H](Cc1c[nH]cn1)NC(=O)CNC(=O)[C@@H](NC(=O)[C@H](C)NC(=O)[C@H](Cc1c[nH]c2ccccc12)NC(=O)[C@H](CCC(N)=O)NC(=O)[C@H](N)Cc1c[nH]c2ccccc12)C(C)C [Peptide 29, D--Trp--Gln--Trp--Ala--Val--Gly--His--Leu-psi-Trp--NH2] |  |  | 526 | 605
16 | CC(C)C[C@@H](CN[C@@H](Cc1c[nH]c2ccccc12)C(N)=O)NC(=O)[C@H](Cc1c[nH]cn1)NC(=O)CNC(=O)[C@@H](NC(=O)[C@H](C)NC(=O)[C@H](Cc1c[nH]c2ccccc12)NC(=O)[C@H](CCC(N)=O)NC(=O)[C@H]1Cc2c([nH]c3ccccc23)CN1)C(C)C [Peptide 30, D--Tpi--Gln--Trp--Ala--Val--Gly--His--Leu-psi-Trp--NH2] |  |  | 4 | 5.15
